# Tests used:
# [1] = system: chia and flax seeds; assay: Mucilage release from mucilaginous seeds after treatment; settings: alcohol in the aqueous sanitizing composition
# Method: A minimum of 4 ml of the treatment solution was sprayed, using a handheld atomizing sprayer while mixing, on 100 gram samples of chia and flax seeds. The samples were allowed to air dry and checked for mucilage.
# A minimum of 4 ml of the treatment solution was sprayed, using a handheld atomizing sprayer while mixing, on 100-gram samples of chia and flax seeds. The samples were allowed to air dry and checked for mucilage.
# [2] = system: Total count Aerobic bacteria; assay: Total aerobic count on seeds, grains and spices sprayed with sanitizing solutions (Example 1); assay type: cell-based
# Method: (§1) Seeds were mechanically cleaned and spread in stainless steel containers. Each 100 grams seeds were sprayed with 4 ml total solutions descried above via conventional trigger vaporizer. This solution is equivalent to 40 L disinfecting solution total sprayed on 1-tonne seeds. Seeds, grains and spices were selected to represent all families and types of seeds, grains and spices. Another criterium was to select seeds and grains contaminated with a high count of total aerobic bacteria, yeast, mold, E. coli, Salmonella sp. and other pathogenic microorganisms.
# (§2) Seeds, grains and spices treated were: • Whole dried pea, • Split pea dried, • Pea fiber, • Vanilla, • Chia, • Sprouted flax and chia, • Flax, • Hemp, and • Black pepper seeds
# [3] = system: yeast and mold (Y&M); assay: Y&M count on seeds, grains and spices sprayed with sanitizing solutions (Example 1); assay type: cell-based; settings: 40 L/tonne; for Y&M, Av: average; for Y&M, n1: replicate n1; for Y&M, n2: replicate n2
# Method: as §1, §2
# [4] = whole dried pea, 40 L per 1 tonne
compound,measurement,setting,value
CC(O)CO (centres unmarked) [propylene glycol],effective amount (concentration) required to suppress mucilage release,[1],about 13 % by volume
CC(=O)OO [Peracetic acid],bactericidal effect (conclusion),"[2]; black pepper, 40 L per 1 tonne",strong bactericidal agent
same,bactericidal effect (conclusion),"[2]; hemp, 40 L per 1 tonne",strong bactericidal agent
same,bactericidal effect (conclusion),"[2]; pea fiber, 40 L per 1 tonne",strong bactericidal agent
same,bactericidal effect (conclusion),"[2]; split pea, 40 L per 1 tonne",strong bactericidal agent
same,bactericidal effect (conclusion),"[2]; vanilla, 40 L per 1 tonne",strong bactericidal agent
same,bactericidal effect (conclusion),[2]; [4],strong bactericidal agent
"CCO [2- Alcohol - ethanol, ethanol]","Y&M, Av",[3]; black pepper,"Av = 1,000 Y&M CFU/g"
same,"Y&M, Av",[3]; chia seeds,"Av = 10,000 Y&M CFU/g"
same,"Y&M, n1",[3]; chia seeds,"n1 = 10,000/n2 = 10,000 CFU/g"
same,"Y&M, n2",[3]; chia seeds,"n1 = 10,000/n2 = 10,000 CFU/g"
same,"Y&M, Av",[3]; flax seeds,"Av = 1,000 Y&M CFU/g"
same,"Y&M, n1",[3]; flax seeds,"n1 = 1,000/n2 = 1,000 CFU/g"
same,"Y&M, n2",[3]; flax seeds,"n1 = 1,000/n2 = 1,000 CFU/g"
same,"Y&M, Av",[3]; hemp,"Av = 1,000 Y&M CFU/g"
same,"Y&M, n1",[3]; hemp,n1 = 1000/n2 = 1000 CFU/g
same,"Y&M, n2",[3]; hemp,n1 = 1000/n2 = 1000 CFU/g
same,"Y&M, Av",[3]; pea fiber,Y&M not detected
same,"Y&M, n1",[3]; pea fiber,"n1, n2 not detected"
same,"Y&M, n2",[3]; pea fiber,"n1, n2 not detected"
same,"Y&M, Av",[3]; sprouted flax and chia,"Av = 1,000 Y&M CFU/g"
same,"Y&M, n1",[3]; sprouted flax and chia,"n1 = 1,000/n2 = 1,000 CFU/g"
same,"Y&M, n2",[3]; sprouted flax and chia,"n1 = 1,000/n2 = 1,000 CFU/g"
same,"Y&M, Av",[3]; vanilla,"Av = 1,000 Y&M CFU/g"
same,"Y&M, n1",[3]; vanilla,n1 = 1000/n2 = 1000 CFU/g
same,"Y&M, n2",[3]; vanilla,n1 = 1000/n2 = 1000 CFU/g
same,"Y&M, Av",[3]; whole dried pea,Y&M not detected
same,"Y&M, n1",[3]; whole dried pea,"n1, n2 not detected"
same,"Y&M, n2",[3]; whole dried pea,"n1, n2 not detected"
same,"Y&M, Av",[3]; whole split pea,Y&M not detected
same,"Y&M, n1",[3]; whole split pea,"n1, n2 not detected"
same,"Y&M, n2",[3]; whole split pea,"n1, n2 not detected"
same,bactericidal effect (conclusion),"[2]; black pepper, 40 L per 1 tonne",not a strong bactericidal agent
same,"Total count Aerobic CFU/g bacteria, Av","[2]; black pepper, 40 L/tonne, average",Av = 1 million
same,"Total count Aerobic CFU/g bacteria, Av","[2]; chia seeds, 40 L/tonne, average","Av = 510,000 CFU/g"
same,"Total count Aerobic CFU/g bacteria, n1","[2]; chia seeds, 40 L/tonne, replicate n1","n1 = 520,000 CFU/g"
same,"Total count Aerobic CFU/g bacteria, n2","[2]; chia seeds, 40 L/tonne, replicate n2","n2 = 500,000 CFU/g"
same,"Total count Aerobic CFU/g bacteria, Av","[2]; flax seeds, 40 L/tonne, average",Av = 2 millions
same,"Total count Aerobic CFU/g bacteria, n1","[2]; flax seeds, 40 L/tonne, replicate n1",n1 = 1.8 millions
same,"Total count Aerobic CFU/g bacteria, n2","[2]; flax seeds, 40 L/tonne, replicate n2",n2 = 2.2 millions
same,bactericidal effect (conclusion),"[2]; hemp, 40 L per 1 tonne",not a strong bactericidal agent
same,"Total count Aerobic CFU/g bacteria, Av","[2]; hemp, 40 L/tonne, average",Av = 1 million
same,"Total count Aerobic CFU/g bacteria, n1","[2]; hemp, 40 L/tonne, replicate n1","n1 = 800,000 CFU/g"
same,"Total count Aerobic CFU/g bacteria, n2","[2]; hemp, 40 L/tonne, replicate n2",n2 = 1.2 millions
same,bactericidal effect (conclusion),"[2]; pea fiber, 40 L per 1 tonne",not a strong bactericidal agent
same,"Total count Aerobic CFU/g bacteria, Av","[2]; pea fiber, 40 L/tonne, average","Av = 700,000 CFU/g"
same,"Total count Aerobic CFU/g bacteria, n1","[2]; pea fiber, 40 L/tonne, replicate n1","n1 = 500,000 CFU/g"
same,"Total count Aerobic CFU/g bacteria, n2","[2]; pea fiber, 40 L/tonne, replicate n2","n2 = 900,000 CFU/g"
same,bactericidal effect (conclusion),"[2]; split pea, 40 L per 1 tonne",not a strong bactericidal agent
same,bactericidal effect (conclusion),[2]; sprouted flax and chia,bactericidal agent but not very strong
same,"Total count Aerobic CFU/g bacteria, Av","[2]; sprouted flax and chia, 40 L/tonne, average","Av = 600,000 CFU/g"
same,"Total count Aerobic CFU/g bacteria, n1","[2]; sprouted flax and chia, 40 L/tonne, replicate n1","n1 = 550,000 CFU/g"
same,"Total count Aerobic CFU/g bacteria, n2","[2]; sprouted flax and chia, 40 L/tonne, replicate n2","n2 = 650,000 CFU/g"
same,bactericidal effect (conclusion),"[2]; vanilla, 40 L per 1 tonne",not a strong bactericidal agent
same,"Total count Aerobic CFU/g bacteria, Av","[2]; vanilla, 40 L/tonne, average",Av = 1 million
same,"Total count Aerobic CFU/g bacteria, n1","[2]; vanilla, 40 L/tonne, replicate n1",n1 = 1 million
same,"Total count Aerobic CFU/g bacteria, n2","[2]; vanilla, 40 L/tonne, replicate n2",n2 = 1 million
same,bactericidal effect (conclusion),[2]; [4],not a strong bactericidal agent
same,"Total count Aerobic - CFU/g bacteria, Av","[2]; whole dried pea, 40 L/tonne, average","Av = 900,000 CFU/g"
same,"Total count Aerobic - CFU/g bacteria, n1","[2]; whole dried pea, 40 L/tonne, replicate n1","n1 = 800,000 CFU/g"
same,"Total count Aerobic - CFU/g bacteria, n2","[2]; whole dried pea, 40 L/tonne, replicate n2",n2 = 1 million
same,"Total count Aerobic CFU/g bacteria, Av","[2]; whole split pea, 40 L/tonne, average","Av = 700,000 CFU/g"
same,"Total count Aerobic CFU/g bacteria, n1","[2]; whole split pea, 40 L/tonne, replicate n1","n1 = 700,000 CFU/g"
same,"Total count Aerobic CFU/g bacteria, n2","[2]; whole split pea, 40 L/tonne, replicate n2","n2 = 700,000 CFU/g"
CCO [ethanol],effective amount (concentration) required to suppress mucilage release,[1],about 15 % by volume

# Source: patent publication US20160066572A1, “METHOD OF SANITIZING EDIBLE SEEDS, PARTICULARLY MUCILAGE PRODUCING SEEDS” (AGRI-NEO INC., priority 2013, published 2016)
